The text below walks through data of patent US20240002846A1, “COMPOSITIONS AND METHODS FOR THE DIAGNOSIS AND TREATMENT OF ITCH” (Duke University, priority 2020, published 2024).

One data set deals with mice. Briefly: Effect of inhibitor pretreatment on LPA-, LPC- or miR-146a-induced scratching behavior. The conditions noted are these: for effect on LPC-induced itch, i.p. injection / effect on miR-146a-induced itch, i.p. injection: i.p.: SB366791 2 mg/kg, HC030031 30 mg/kg; for effect on LPC-induced itch, i.t. injection / effect on miR-146a-induced itch, i.t. injection: i.t. 30 μg. It is filed as in vivo, mouse. How it is done:
Behavioral assessment. Mice were shaved at the dorsal neck 1 d before experiments. […] After injections, mice were immediately placed back to the chamber, and the scratching behavior was recorded by a Panasonic video camera for 30 min. Hind limb scratching behavior directed toward the injected area at the nape of neck was observed. One scratch is defined as a lifting of the hind limb toward the injection site and then a replacing of the limb back to the floor, regardless of how many scratching strokes take place between those two movements. Behavioral analysis was conducted by observers blinded to genotype.
Control animals received the same volume of vehicles.
Lumbar puncture was made with a 30G-needle and drugs at 5 μL of volume were delivered. Scratching behavior assay was started approximately 2 weeks after resiniferatoxin treatment.

A further data set deals with DRG sensory neurons. Description: Ca2+ imaging in cultured DRG sensory neurons. It is filed as cell-based, mouse. The conditions noted are these: inhibitor 10 μM. How it is done:
Primary mouse sensory neurons were cultured following previous protocol (Chen et al. Pain 2014, 155, 2662-2672). DRGs from 2-3 weeks old male WT, Trpv1 KO, and Trpa1 KO mice were dissected and digested with 1 mg/mL collagenase (Worthington, CSL1) and 5 mg/mL dispase (Invitrogen, Waltham, MA) for 1 h, then triturated. The resulting cell suspension was filtered through a 70 μm cell strainer (BD Biosciences, Bedford, MA) to remove debris. Neurons were cultured in DH10 medium (1:1 DMEM:Hams-F12, Invitrogen, Waltham, MA) with 10% FBS (Sigma, St. Louis, MO), 100 U/mL penicillin and 100 μg/mL streptomycin (Gibco, Gaithersburg, MD) and 50 ng/mL nerve growth factor (NGF; USBiological) on coverslips coated with poly-D-lysine and laminin (Invitrogen, Waltham, MA), and incubated with 5% CO2 at 37° C. Ca^2+ imaging was performed next day after culture.
In vitro and ex vivo Ca^2+ imaging. Routine procedures were followed for Ca^2+ imaging in cultured DRG sensory neurons, epidermal keratinocytes, and HEK cells (Chen et al. J. Biol. Chem. 2016, 291, 10252-10262; Chen et al. Pain 2014, 155, 2662-2672). […] Ratios of emissions were acquired at 0.5 Hz. ΔR/R0 was determined as the fraction of the increase of a given ratio over baseline ratio divided by baseline ratio. […]

The subject of the next data set is DRG neurons. Description: Ex vivo Ca2+ imaging of GCaMP3-expressing DRG explants. In kind it is cell-based, mouse. How it is done:
A previously established method was followed for ex vivo Ca^2+ imaging of DRG explants (Kim et al. Neuron 2014, 81, 873-887). Intact DRGs (L4 or L5) were isolated from naïve male or female Pirt-GCaMP3 mice (2-3 months old) and equilibrated in artificial cerebrospinal fluid (ACSF) bubbled with 95% O2/5% CO2 at room temperature. After 15 min, explants were placed in a dish with 2 mL of pre-oxygenated ACSF and imaged using a Zeiss 780 upright confocal microscope (Carl Zeiss AG, Oberkochen, Germany) with 20× water immersion objective and Z-stack approach at the 488 nm wavelength. Explants were stimulated by miR-146a or miR-146a scramble. After 15 min recording, capsaicin was then applied to identify whether the miR-146a responding neurons were TRPV1 positive. […] Ca^2+ fluorescence intensity was determined using the ImageJ software (NIH, Bethesda, MD, USA). For each neuron, the pixel intensity (Ft) was assessed for each frame and the pixel intensity recorded from the first 20 frames was taken to determine the average baseline value (F0). Ca^2+ signal amplitudes are presented as ΔF/F0, which is the ratio of fluorescence difference (Ft−F0) to baseline (F0).

Data set [1] concerns extracellular release of miR-146a. Briefly: Extracellular release of miRs from cultured mouse keratinocytes (RT-qPCR). It is filed as cell-based. Conditions: mKC; for effect of siRNA knockdown on LPC-elicited release of miR-146a: LPC 10 μM, 10 min, siRNA 72 h, vs Scramble+LPC; for decrease of extracellular-released miR-146a: siRNA knockdown, LPC stimulation. How it is done: Primary mouse keratinocytes were cultured following previous protocol (Chen et al. J. Biol. Chem. 2016, 291, 10252-10262). The epidermis from the back skin of newborn WT or keratinocyte-Trpv4 cKO mice was separated from the dermis by floating the skin on 0.25% trypsin (Gibco, Gaithersburg, MD) for 14-18 h at 4° C. Basal keratinocytes were separated from the cornified sheets by filtration through a […] cell strainer. Keratinocytes were plated on collagen I-coated dishes or glass coverslips and grown in EME media (Gibco, Gaithersburg, MD) containing 8% chelex (Bio-rad, Hercules, CA)-treated FBS with the final Ca^2+ adjusted to 0.05 mM, bovine pituitary extract (50 μg/mL), epidermal growth factor (5 ng/mL), and lx antibiotics/antimycotics (Gibco, Gaithersburg, MD) in a humidified incubator with 5% CO2 at 37° C. for 5-7 days until use. To knockdown Trpv4 in isolated keratinocytes from newborn keratinocyte-Trpv4 cKO mice, cells were treated with 4-OH tamoxifen at 500 nM for 72 h.
Measurement of released vesicles and extracellular miR-146a from cultured keratinocytes or sera Medium for the cultured keratinocytes was replaced with serum-free medium 2 h before LPC stimulation. […] Finally, cell-free supernatants were further purified using a Vesicular Isolation kit (Invitrogen, Waltham, MA) according to the manufacturer's instructions, with final product resuspended in ice-cold PBS. Total RNA extraction was then carried out using a Total RNA Isolation kit (Invitrogen, Waltham, MA). Enrichment for small RNAs was carried out by sequential increase in ethanol concentration and passing through glass-fiber filters. RNase free water was used to elute small RNAs in the final elution step. For human PBC sera or sera from ANIT-treated mice, RNA was isolated using Qiagen miRNeasy Plasma/Serum kit. cDNA synthesis from extracted RNAs was performed according to manufacturer's instructions (qSTAR miRNA kit, Origene). For qPCR, the stem-loop oligonucleotides specific for the following miRs are as follows: miR-146a-5p (GAGAACTGAATTCCATGGG, SEQ ID NO: 4), miR-let-7b (GAGGTAGTAGGTTGTGTGG, SEQ ID NO: 5), miR-125b-1 (CCCT GAGACCCTAACTTG, SEQ ID NO: 6), miR-203 (GTGGTTC TTGACAGTTCAAC, SEQ ID NO: 7), and miR-16-5p (AGCAGCAC GTAAATATTGGC, SEQ ID NO: 8). Primers were purchased from Integrated DNA Technologies company (Coralville, IA). qPCR reactions for each sample were run in triplicates, including no-template controls. MiR-16-5p was selected as a control due to the relative constancy of its expression in various cultured cell lines (Schwarzenbach et al. Clin. Chem. 2015, 61, 1333-1342). qPCR for this miR was performed in tandem with target miRs to determine the optimal normalization procedure. To investigate the effects of the specific TRPV4 inhibitors GSK205 or HC067047 and the specific MEK inhibitor U0126 on LPC-induced extracellular release of miR-146a, cells were incubated with the inhibitors for 15 min before stimulation. Control cells received the same volume of vehicle.
Vesicular release from cultured keratinocytes was quantified by detecting acetylcholinesterase (AChE) activity in the extracellular release fluid. (Gupta et al. Am. J. Physiol. Heart Circ. Physiol. 2007, 292, H3052-3056; Malik et al. Methods Mol. Biol. 2016, 1448, 237-248). CBQCA Protein Quantitation Kit (Molecular Probes, Eugene, OR) was used to assess the total protein amounts of each sample. Quantitation was carried out according to kit instructions (Fluorocet, Systems Biosciences, Palo Alto, CA). Briefly, vesicles were lysed to release esterase enzyme whose activity is measured using a florescence dye, excitation at 544 nm and emission at 590 nm. Fluostar Optima (BMG Labtech, Cary, NC) microplate reader was used to measure esterase activity. 500 ng protein equivalent of input was used per well. […]

Data set [2] has as its system vesicular release from mKC. Description: Vesicular release from cultured mouse keratinocytes (AChE activity). The conditions noted are these: vs Scramble+LPC. In kind it is cell-based. How it is done:
Vesicular release from cultured keratinocytes was quantified by detecting acetylcholinesterase (AChE) activity in the extracellular release fluid. (Gupta et al. Am. J. Physiol. Heart Circ. Physiol. 2007, 292, H3052-3056; Malik et al. Methods Mol. Biol. 2016, 1448, 237-248). CBQCA Protein Quantitation Kit (Molecular Probes, Eugene, OR) was used to assess the total protein amounts of each sample. Quantitation was carried out according to kit instructions (Fluorocet, Systems Biosciences, Palo Alto, CA). Briefly, vesicles were lysed to release esterase enzyme whose activity is measured using a florescence dye, excitation at 544 nm and emission at 590 nm. Fluostar Optima (BMG Labtech, Cary, NC) microplate reader was used to measure esterase activity. 500 ng protein equivalent of input was used per well. To determine the contribution of Rab5a and Rab27a to LPC-induced miR-146a release, cells were pre-treated with the Rab5a (5′-GUAGAAUCAA GUUUCUAAUUCUGAA-3′ SEQ ID NO: 9, 5′-[…]-3′ SEQ ID NO: 10) or Rab27a (5′-AGCUAAAA CUGAGAGCUUCAAACAG-3′ SEQ ID NO: 11, 5′-[…]-3′ SEQ ID NO: 12) siRNA (IDT, Coralville, IA) for 72 h before stimulation. Control cells were treated with scramble siRNA.

Entries after “also recorded” stand apart in the source; their conditions may differ.

Take `CC(C)c1ccc(NC(=O)Cn2cnc3c2c(=O)n(C)c(=O)n3C)cc1` [HC030031]: in the data set with mice, the “effect on LPC-induced itch, i.p. injection” value was “not significantly altered”; the “effect on miR-146a-induced itch, i.p. injection” value is “not significantly altered”; the “effect on LPC-induced itch, i.t. injection” value is “not significantly altered”; the “effect on miR-146a-induced itch, i.t. injection” value was “not significantly altered”. For the same compound, the “effect on miR-146a (300 nM) induced Ca2+ influx” value in the data set on DRG sensory neurons is recorded as “not significantly altered”.
For `COc1cccc(NC(=O)/C=C/c2ccc(Cl)cc2)c1` [SB366791], in the data set with mice, the “effect on LPC-induced itch, i.p. injection” value was “significantly reduced; also recorded: significantly attenuated”; the “effect on miR-146a-induced itch, i.p. injection” value was “significantly reduced; also recorded: significantly attenuated”; the “effect on LPC-induced itch, i.t. injection” value is “significantly reduced; also recorded: significantly attenuated”; the “effect on miR-146a-induced itch, i.t. injection” value is on record as “significantly reduced; also recorded: significantly attenuated”. Besides, the “effect on percentage of total DRG neurons responding to miR-146a (300 nM)” value in the data set on DRG neurons (inhibitor 10 μM) is on record as “significantly reduced”. In the data set with DRG sensory neurons, the “effect on miR-146a (300 nM) induced Ca2+ influx” value is “significantly reduced”.
On to `COc1cc(CNC(=O)CCCC/C=C/C(C)C)ccc1O` [capsaicin], for which the “Ca2+ signal in sensory neurons following stimulation” value in the data set with DRG neurons (miR-146a 300 nM, capsaicin 1 μM) is on record as “increased”.
Consider “Rab5a siRNA: siRNA against Rab5a, SEQ ID NO: 9 and 10 (chain 1 GUAGAAUCAAGUUUCUAAUUCUGAA; chain 2 UUCAGAAUUAGAAACUUGAUUCUACCA; listed as RNA, chemistry not given here)”, for which, in data set [1], the “effect of siRNA knockdown on LPC-elicited release of miR-146a” value is “significant decrease” and the “decrease of extracellular-released miR-146a” value was about 40%. Also, the “effect of siRNA on LPC-elicited vesicular release” value in data set [2] was “completely eliminated; also recorded: significant decrease”.
With “Rab27a siRNA: siRNA against Rab27a, SEQ ID NO: 11 and 12 (chain 1 AGCUAAAACUGAGAGCUUCAAACAG; chain 2 CUGUUUGAAGCUCUCAGUUUUAGCUUA; listed as RNA, chemistry not given here)”, in data set [1], the “effect of siRNA knockdown on LPC-elicited release of miR-146a” value was “significant decrease” and the “decrease of extracellular-released miR-146a” value is about 40%. The “effect of siRNA on LPC-elicited vesicular release” value in data set [2] is reported as “completely eliminated; also recorded: significant decrease”.
